Results taken from patent publication US5466717A, “Halogenated 4'-methoxyacetophenones as microbicides and preservatives” (Buckman Laboratories Int'l, Inc., priority 1993, dated 1995).
≈ marks a conversion by molar mass, not a printed value. Read-outs that look alike come from different tables or passages of the source.

How the values were obtained:
[1] = test system: Chlorella pyrenoidosa; assay: Growth inhibition of algae in Difco Algae Broth (Table 6); format: cell-based; details: Auxenochlorella pyrenoidosa, 672 h, read-out: Minimum inhibitory concentration
Protocol: The growth-inhibiting activity of the method of the invention against the algae Chlorella pyrenoidosa was evaluated at two different pH levels in Difco Algae Broth. The content of the broth was as follows: Forty-gram portions of the algae medium were added to 250 mL Erlenmeyer flasks fitted with loose metal caps and were then sterilized. Each of the following substances was then added to the flasks in the order listed: (1) Sterile algae medium as required to bring the total weight of the contents of each flask to 50 grams, after allowing for all subsequent additions specified below. (2) A solution of the toxicant or of a control agent to be evaluated in each test, to give the concentration desired in parts per million by weight. (3) Chlorella pyrenoidosa, in amounts sufficient to give excellent growth in the controls after 14 days. This was achieved by adding 1 milliliter of a 14 day old culture having luxuriant growth. The Chlorella pyrenoidosa culture was obtained from American Type Culture Collection No. 7516. Control experiments were carried out where no toxicants were employed. In the algicidal tests the growth of algae in the nutrient is lush green and can be seen with the naked eye. Since the minimum inhibitory concentrations of the compounds in this example are those which result in complete inhibition, evaluation of the test results is not subjective. After the inoculum of the test algae was added, the flasks were incubated at a temperature of 28°±2° C. under fluorescent illumination of 250 foot-candle intensity (8 hours light, 16 hours darkness) for a period adequate for growth in the controls (those portions of medium which contained no toxicant). Observations of growth were made at 7-day intervals. Minimum inhibitory concentrations are those that prevented complete growth after 28 days.

[2] = test system: Aspergillus niger; assay: Inhibition of Aspergillus niger, modified pulp substrate method (Table 3); format: cell-based; set-up: key: 4: excellent; 3: good; 2: poor; 1: very poor, scant, questionable; 0: no growth; details: pH 4.5 to 5.0
Protocol: The growth inhibiting activity of compounds 1 and 2 on the fungus Aspergillus niger was evaluated. A variation of the pulp substrate method of Example 2 was used.
When fungi are used as test organisms, the pulp-substrate test method is modified to permit the growth of fungi. The pulp substrate comprises an aqueous slurry of spruce groundwood containing 1 percent by weight (dry basis) of wood fibers enriched by the addition of 0.26 percent of sodium nitrate and 0.64 percent of maltose (technical grade). Forty-gram portions of the enriched groundwood pulp slurry were added to 250 mL Erlenmeyer flasks fitted with loose metal caps and were then sterilized. Each of the following substances was then added to the flasks in the order listed:
(1) Sterile, demineralized water as required in each individual case was added to bring the total weight of the contents of each flask to 50 grams, after allowing for all subsequent additions specified hereinafter (including inoculation with the aqueous suspension of spores and/or mycelial fragments of the test fungus).
(2) One milliliter of a 2.0 percent by weight sterile solution of rosin size. Rosin size is the pasty sodium soap of rosin containing approximately 20 to 30 percent free rosin and 30 percent water. A suitable rosin size is that known as rosin size 70D made by Papermaker's Chemical Department, Hercules, Inc., Kalamazoo, Mich.
(3) A solution of the toxicant or control agent to be evaluated in each test, to give the concentration desired in parts per million by weight.
(4) A sterile solution of buffer salts to adjust the substrate to a pH of 4.5 to 5.0, prepared from 0.2M solutions of potassium acid phthalate and sodium hydroxide. The buffer mixtures were prepared according to the procedures set forth in U.S. Pat. No. 2,881,070.
(5) Inoculum consisting of 1 milliliter of an aqueous suspension of spores and/or mycelial fragments of the test organism, Aspergillus niger.
After the inoculant suspensions of the test fungi were added, the flasks were incubated at a temperature of 30°±1° C. for a period adequate for growth to occur in the controls (portions of inoculated pulp substrate which contained no toxicant). The customary periods of incubation were 7 and 14 days. Growth was recorded after each period on the basis of the following key: […]

[3] = test system: Aspergillus sp., Aureobasidium sp., Trichoderma sp., Penicillium sp., and Chaetomium sp.; assay: Resistance to growth of mold on the surface of interior coatings in an environmental chamber, ASTM D3273-86 (Table 4); set-up: key: 10: no mold growth; 9: very slight mold growth; 8: slight growth; 7: slight to medium growth; 6: slight to medium growth; 5: failure (extensive growth)
Protocol: A standard method to determine the resistance to growth of mold on the surface of interior coatings in an environmental chamber, ASTM method D3273-86, was used to determine the effectiveness of compounds 1 and 2.
Treatments were prepared by dissolving 2.0 g of the compounds of the present invention in 10 mL of acetone/methanol. Two types of paint were used: namely, an alkyd (self-priming white with Beckasol 296-70) and a latex (self-priming, alkyd-modified acrylic paint). […] Each sample was shaken vigorously for 5 minutes using a standard paint shaker.
Blocks of drywall having two inch by four inch dimensions were painted on the front surface and on all edges with two coats of the respective treatments. After drying, the back side was painted with one coat of clear latex. A hole was drilled half-way through the block at one end, and duplicate blocks per treatment were hung in an environmental chamber.
The aggressive nature of the interior of the chamber was developed by inoculating trays of moist potting soil with active cultures of Aspergillus sp., Aureobasidium sp., Trichoderma sp., Penicillium sp., and Chaetomium sp. The chamber was maintained at 100 percent relative humidity and 32° C. Final observations were made after four weeks (for latex blocks) or eight weeks (for alkyd blocks).

[4] = 0.01 % by weight, alkyd, eight weeks
[5] = 0.01 % by weight, latex, four weeks
[6] = 0.025 % by weight, alkyd, eight weeks
[7] = 0.025 % by weight, latex, four weeks
[8] = 0.05 % by weight, alkyd, eight weeks
[9] = 0.05 % by weight, latex, four weeks
[10] = 0.10 % by weight, alkyd, eight weeks
[11] = 0.10 % by weight, latex, four weeks
[12] = 0.25 % by weight, alkyd, eight weeks
[13] = 0.25 % by weight, latex, four weeks
[14] = 0.50 % by weight, alkyd, eight weeks
[15] = 0.50 % by weight, latex, four weeks

SMILES | MIC ([1]; pH 7.0, 28 days) | MIC ([1]; pH 8.0, 28 days) | Inhibition of Aspergillus niger, growth after 14 days ([2]; 5 ppm) | Inhibition of Aspergillus niger, growth after 14 days ([2]; 10 ppm) | Inhibition of Aspergillus niger, growth after 14 days ([2]; 25 ppm) | Inhibition of Aspergillus niger, growth after 14 days ([2]; 100 ppm) | Growth of mold on the surface of interior coatings [3, 4] | Growth of mold on the surface of interior coatings [3, 5] | Growth of mold on the surface of interior coatings [3, 6] | Growth of mold on the surface of interior coatings [3, 7] | Growth of mold on the surface of interior coatings [3, 8] | Growth of mold on the surface of interior coatings [3, 9] | Growth of mold on the surface of interior coatings [3, 10] | Growth of mold on the surface of interior coatings [3, 11] | Growth of mold on the surface of interior coatings [3, 12] | Growth of mold on the surface of interior coatings [3, 13] | Growth of mold on the surface of interior coatings [3, 14] | Growth of mold on the surface of interior coatings [3, 15]
COc1ccc(C(=O)CBr)cc1Br [Compound 1, 2,3'-dibromo-4'-methoxyacetophenone] | 4 µg/mL (≈ 13 µM) | 2 µg/mL (≈ 6.49 µM) | 4 | 2 | 0 | 0 | 5 | 8 | 5 | 8 | 6 | 9 | 6 | 9 | 7 | 10 | 7 | 10
COc1ccc(C(=O)C(Br)Br)cc1Br [Compound 2, 2,2,3'-tribromo-4'-methoxyacetophenone] | 8 µg/mL (≈ 20.7 µM) | 4 µg/mL (≈ 10.3 µM) | 4 | 2 | 0 | 0 | 5 | 9 | 5 | 10 | 6 | 10 | 8 | 10 | 10 | 10 | 10 | 10
